Measured values: US20250241990A1, “THERAPEUTIC AGENT” (priority 2022, published 2025)

B1: NIpD: recombinant NIpD protein; bacterial protein, e.g. from E. coli 83972; may comprise or consist of SEQ ID NO: 1 (protein, listed as Escherichia coli)
chain: MSAGSPKFTVRRIAALSLVSLWLAGCSDTSNPPAPVSSVNGNAPANTNSGMLITPPPKMGTTSTAQQPQIQPVQQPQIQATQQPQIQPMQPVAQQPVQMENGRIVYNRQYGNIPKGSYSGSTYTVKKGDTLFYIAWITGNDFRDLAQRNNIQAPYALNVGQTLQVGNASGTPITGGNAITQADAAEQGVVIKPAQNSTVAVASQPTITYSESSGEQSANKMLPNNKPTATTVTAPVTVPTASTTEPIVSSTSTSTPISTWRWPTEGKVIETFGASEGGNKGIDIAGSKGQAIIATADGRVVYAGNALRGYGNLIIIKHNDDYLSAYAHNDTMLVREQQEVKAGQKIATMGSTGTSSTRLHFEIRYKGKSVNPLRYLPQR

System: E. coli CFT073
Assay: Irf3−/− mice infected with E. coli CFT073 by intravesical instillation; genetic model of acute pyelonephritis and urosepsis
Format: in vivo
Conditions: for bacterial growth in urine: at day 21 and 42; for long term protection against infection and inflammation: daily i.p. treatment for 7 days, follow-up to day 42, FIG. 2; for urine neutrophil numbers: long-term follow-up (day 21 and 42)
Description: Irf3^−/− mice were infected with E. coli CFT073 (50 μl of 2.109 cfu/ml) by intravesical instillation. Intraperitoneal treatment was administered daily, starting 6 hours after infection and for 7 days. Mice were treated with recombinant NIpD protein (105 μg in 100 μl) or IL-1RA (Anakinra, 1 mg/kg, 100 μl). Control mice received PBS. Urine sampling for bacterial and neutrophil counts were done on day 1, 3, 5 and 7 in one group of animals (those sacrificed on day 7), and on day 1, 3, 5, 7, 21 and 42 in others.
Animals were sacrificed under anesthesia; kidneys and bladders were asceptically removed and in the case of bladders, macroscopic pathology was documented by photography. Tissues were fixed with 4% paraformaldehyde or frozen for sectioning and RNA extraction. Viable counts in homogenized tissues (Stomacher 80, Seward Medical) were determined on TSA (37° C., overnight). Urine samples were collected prior to and at regular times after infection and quantitatively cultured. Neutrophils in uncentrifuged urine were counted, using a hemocytometer.

Molecule | bacterial growth in urine | long term protection against infection and inflammation | urine neutrophil numbers
IL-1RA: interleukin-1 receptor antagonist (IL-1 RA), anakinra | no bacterial growth in urine | long term protection | low urine neutrophil numbers
B1 | no bacterial growth in urine | long term protection | low urine neutrophil numbers
